Laboratory results from patent US20040029841A1, “Purinergic antagonists for treating depression” (priority 2002, published 2004).

Test system: brain bioenergetic status
Assay: In vivo 31P magnetic resonance spectroscopy and T2 relaxation times of the brain (axial slice, bilateral basal ganglia) in healthy individuals taking oral SAMe
Set-up: species or system human
Experimental: This lowering was measured as a decrease in the ratio of beta ATP to total ^31P MRS metabolites and detected using magnetic resonance imaging (see, e.g., U.S. Pat. No. 6,258,794, hereby incorporated by reference).
Five healthy men and seven healthy women self-administered 1600 mg of oral SAMe daily. The effect of SAMe on brain bioenergetic status, membrane integrity, and brain transverse relaxation time (T2) was then examined. In vivo ^31P magnetic resonance spectra and relaxation times were acquired, at baseline and after 14 and 28 days of treatment, from an axial slice (50 mm) encompassing the bilateral basal ganglia using a 1.5-T scanner. […] The changes observed in PCr and β-NTP are consistent with the report that SAMe is involved in the production of creatine, which in turn is phosphorylated to PCr at the expense of β-NTP (Braissant et al., Brain Res. Mol. Brain Res. 2001, 86:193-201).
As changes in T2 relaxation times are inversely related to alterations in steady state blood flow, the decrease in T2 observed in women corresponds to a 3.8% increase in cerebral blood flow.

C[S+](CC[C@H](N)C(=O)O)C[C@H]1O[C@@H](n2cnc3c(N)ncnc32)[C@H](O)[C@@H]1O (some centres unmarked) [SAMe, S-adenosylmethionine]
circulating levels of ATP (ratio of beta ATP to total 31P MRS metabolites) (healthy individuals, on average, magnetic resonance): lowering of circulating levels of ATP
mole percent concentrations of phosphocreatine (PCr) (healthy men and women, 1600 mg oral SAMe daily, 14 and 28 days of treatment vs baseline, 31P MRS, basal ganglia slice): significantly higher than at baseline
mole percent beta nucleoside triphosphate (β-NTP) levels, predominantly adenosine triphosphate in the brain (healthy men and women, 1600 mg oral SAMe daily, after treatment vs baseline, 31P MRS, FIG. 1): decreased significantly
brain transverse relaxation time (T2) (women vs men at the end of the treatment regimen, 1600 mg oral SAMe daily): significantly lower T2 values than men
increase in cerebral blood flow (women, worked out from the decrease in T2 relaxation time): 3.8%
